We go through four molecules from patent publication US6465654B2, “Process for preparing 1-substituted, 2-substituted 1H-imidazo[4, 5-c]quinoline-4-amines” (3M Innovative Properties Company, priority 1991, dated 2002).

The structures appear in SMILES notation. Some results are limits rather than exact numbers.

One test has as its system interferon-α. The experiment in a line: Interferon-α induction in human cells, PBM. The test is classed as cell-based. As to conditions: 24 hours.
Another test deals with interferon. The test can be described thus: Interferon induction in mice. The test is classed as in vivo. As to conditions: mouse serum. The protocol:
One hour later blood samples are withdrawn from the first group. The samples are pooled then centrifuged. The serum is removed from the centrifuge tube, split into two portions, then placed in freezing vials and maintained at −70° C. until analysis. This procedure is repeated at 2 hours with the second group of mice and at 4 hours with the third group of mice. Samples are assayed as described above in connection with the analysis of interferon induction in human cells. The results are expressed in the table below as α/β reference units/mL based on the value obtained for a mouse MU-1-IF standard. Results are shown in the table below wherein results designated as “<” a certain number indicate that interferon was not detectable in amounts above the lower sensitivity level of the assay.

With `COCc1nc2c(N)nc3ccccc3c2n1Cc1ccccc1` [Example 104, 2-Methoxymethyl-1-phenylmethyl-1H-imidazo[4,5-c]quinolin-4-amine], the Interferon-α induction in the test with interferon-α (dose concentration 0.01 μg/mL) is listed as <2.7 α Reference Units/mL; in the test on interferon-α (dose concentration 0.05 μg/mL), <2.7 α Reference Units/mL; in the test with interferon-α (dose concentration 0.10 μg/mL), 310 α Reference Units/mL; in the test on interferon-α (dose concentration 0.50 μg/mL), 180 α Reference Units/mL; with interferon-α (dose concentration 1.0 μg/mL), 140 α Reference Units/mL; in the test on interferon-α (dose concentration 5.0 μg/mL) it was 310 α Reference Units/mL. The “Interferon induction in mice” value is on record as <380 Reference Units/mL with interferon (oral 0.3 mg/kg, 1 hr); <380 Reference Units/mL in the test with interferon (oral 0.3 mg/kg, 2 hr); <380 Reference Units/mL in the test on interferon (oral 0.3 mg/kg, 4 hr); “˜780 Reference Units/mL” in the test on interferon (oral 1 mg/kg, 1 hr); “˜780 Reference Units/mL” with interferon (oral 1 mg/kg, 2 hr); “˜380 Reference Units/mL” in the test with interferon (oral 1 mg/kg, 4 hr). Also, the “Interferon induction in mice” value in the test on interferon (oral 3 mg/kg, 1 hr) is reported as “≦660 Reference Units/mL”; in the test on interferon (oral 3 mg/kg, 2 hr), 2200 Reference Units/mL; with interferon (oral 3 mg/kg, 4 hr), <380 Reference Units/mL; in the test with interferon (oral 10 mg/kg, 1 hr), 3400 Reference Units/mL; with interferon (oral 10 mg/kg, 2 hr), 4500 Reference Units/mL; with interferon (oral 10 mg/kg, 4 hr), “≦660 Reference Units/mL”.

For the molecule `CCOCc1nc2c(N)nc3ccccc3c2n1CCC(C)C.Cl` [Example 109, 2-Ethoxymethyl-1-(3-methylbutyl)-1H-imidazo[4,5-c]quinolin-4-amine Hydrochloride], the Interferon-α induction in the test with interferon-α (dose concentration 0.01 μg/mL) is reported as <1.4 α Reference Units/mL; in the test on interferon-α (dose concentration 0.05 μg/mL) it was 1000 α Reference Units/mL; in the test with interferon-α (dose concentration 0.10 μg/mL), 1000 α Reference Units/mL; with interferon-α (dose concentration 0.50 μg/mL), 97 α Reference Units/mL; in the test with interferon-α (dose concentration 1.0 μg/mL), 83 α Reference Units/mL; with interferon-α (dose concentration 5.0 μg/mL), 78 α Reference Units/mL.

For `COCc1nc2c(N)nc3ccccc3c2n1CC(C)(C)O` [Example 111, 4-Amino-α,α-dimethyl-2-methoxymethyl-1H-imidazo[4,5-c]quinoline-1-ethanol], the Interferon-α induction in the test on interferon-α (dose concentration 0.01 μg/mL) was 190 α Reference Units/mL; with interferon-α (dose concentration 0.05 μg/mL), 65 α Reference Units/mL; in the test on interferon-α (dose concentration 0.10 μg/mL) it was 65 α Reference Units/mL; in the test on interferon-α (dose concentration 0.50 μg/mL), 49 α Reference Units/mL; with interferon-α (dose concentration 1.0 μg/mL), 55 α Reference Units/mL; in the test on interferon-α (dose concentration 5.0 μg/mL), 61 α Reference Units/mL.

Take `CC(C)Cn1c(C(O)c2ccc(Cl)cc2)nc2c(N)nc3ccccc3c21` (stereo not drawn) [Example 55, 4-Amino-α-(4-chlorophenyl)-1-(2-methylpropyl)-1H-imidazo[4,5-c]quinoline-2-methanol]: the Interferon-α induction in the test with interferon-α (dose concentration 0.10 μg/mL) is listed as <4 α Reference Units/mL; in the test on interferon-α (dose concentration 0.50 μg/mL) it was 1500 α Reference Units/mL; in the test with interferon-α (dose concentration 1.0 μg/mL) it was 1500 α Reference Units/mL; in the test on interferon-α (dose concentration 5.0 μg/mL), 490 α Reference Units/mL.
